Earlier results, collected in patent publication US20090182024A1, “EXTENDED RELEASE TABLET FORMULATION CONTAINING PRAMIPEXOLE OR A PHARMACEUTICALLY ACCEPTABLE SALT THEREOF” (BOEHRINGER INGELHEIM INTERNATIONAL GMBH, priority 2004, published 2009).
Structures can show the parent of a compound that is named as a salt.

Assays:
[1] = in vivo
[2] = not given; remark: listed apart in the source

| stability in solution (in solution) | stability in the solid state (solid state) | kinetics [1] | solubility in buffer media ([2]; between pH 2 and pH 7.4) | Water solubility ([2]; water) | Structure (SMILES) |
| --- | --- | --- | --- | --- | --- |
| light sensitive | very stable | linear kinetics | – | – | CCCN[C@H]1CCc2nc(N)sc2C1 [Pramipexole, (S)-2-amino-4,5,6,7-tetrahydro-6-(propylamino)benzothiazole] |
| – | – | – | above 10 mg/mL | more than 20 mg/mL | CCCN[C@H]1CCc2nc(N)sc2C1 [Pramipexole dihydrochloride monohydrate, pramipexole dihydrochloride monohydrate] |
